Among the data in PubChem BioAssay (NCI) are GI50 and TGI values, retold here.

Each structure is given as a SMILES string.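 Method: 48-hour compound exposure of cells in 96-well plates, five concentrations, linear interpolation of endpoints. GI50 is the concentration that inhibits growth by half. TGI is the concentration that stops growth completely.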 A value given as a limit tells only on which side of the number the result lay.

Test systems include A498 renal; HOP-92 NSCLC; NCI-H23 lung; RPMI-8226 leukemia; SNB-75 CNS; UACC-257 melanoma; UACC-62 melanoma; EKVX NSCLC; NCI-H226 lung; UO-31 renal; MDA-N.
What all share (assay): NCI anticancer screen, dose series, 48 h

As to `CNc1ccc(C(=O)CC(O)CCC(C)C2OC(=O)CC(O)CC(=O)CC(O)CC(O)CC(O)CC(O)CC3(O)CC(O)C(C(=O)OC)C(CC(O[C@@H]4O[C@H](C)[C@@H](O)[C@H](N)[C@@H]4O)/C=C/C=C/C=C/C=C/C=C/C=C/C=C/C2C)O3)cc1` (stereo partly drawn), the GI50 was 1.23 µM in the assay on A498 renal; 3.27 µM in the assay on HOP-92 NSCLC; 1.92 µM with NCI-H23 lung; 3.57 µM with RPMI-8226 leukemia; 2.83 µM in the assay on SNB-75 CNS; 1.45 µM in the assay on UACC-257 melanoma. Further, the GI50 in the assay with UACC-62 melanoma is 2.49 µM. The TGI in the assay on A498 renal was 2.89 µM; in the assay on HOP-92 NSCLC, greater than 100 µM; in the assay with NCI-H23 lung it was 4.84 µM; in the assay on RPMI-8226 leukemia, 54.5 µM; in the assay with SNB-75 CNS, 30.8 µM; in the assay with UACC-257 melanoma, 3.18 µM. In the assay with UACC-62 melanoma, this compound returned a TGI greater than 100 µM.

With `N#CC(NC12CC3CC(CC(C3)C1)C2)c1ccccc1C(F)(F)F` (stereo not drawn), the TGI in the assay on EKVX NSCLC, in the assay with NCI-H226 lung, in the assay on NCI-H23 lung, in the assay on RPMI-8226 leukemia and in the assay on UO-31 renal was greater than 100 µM each time.

As to `COC1C=CC(O)C(CO)O1` (stereo not drawn), the TGI in the assay on EKVX NSCLC, in the assay on HOP-92 NSCLC, in the assay with NCI-H23 lung, with SNB-75 CNS, in the assay with UACC-257 melanoma and with UACC-62 melanoma was greater than 100 µM throughout. The TGI with UO-31 renal is greater than 100 µM.

Turning to `C=CCCN1CCc2c([nH]c3ccccc23)C1C(=O)O` (stereo not drawn), the TGI in the assay with A498 renal, in the assay with EKVX NSCLC, with HOP-92 NSCLC, with NCI-H226 lung, with NCI-H23 lung and with SNB-75 CNS was greater than 100 µM in each case. The TGI with UACC-257 melanoma, with UACC-62 melanoma and in the assay on UO-31 renal was greater than 100 µM throughout.

`O=C(NI1OC(=O)c2ccccc21)c1ccc(Cl)cc1`: the TGI in the assay on A498 renal, in the assay with EKVX NSCLC, with HOP-92 NSCLC, in the assay with NCI-H226 lung, in the assay with NCI-H23 lung and with RPMI-8226 leukemia was greater than 100 µM throughout. The TGI in the assay on SNB-75 CNS, in the assay with UACC-257 melanoma, with UACC-62 melanoma and in the assay with UO-31 renal was greater than 100 µM throughout.

Consider `Cc1ccc(SCC(CF)OC(C)n2cnc3c(=O)[nH]c(N)nc32)cc1` (stereo not drawn), for which the TGI in the assay with HOP-92 NSCLC, in the assay on MDA-N, with NCI-H226 lung, in the assay with NCI-H23 lung, with RPMI-8226 leukemia and in the assay on SNB-75 CNS was greater than 100 µM each time. The TGI with UACC-257 melanoma, with UACC-62 melanoma and in the assay with UO-31 renal was greater than 100 µM each time.

`NC(N)=NCCC[C@H](N)C(=O)NCC(=O)N[C@@H](CC(=O)O)c1ncc(NC(=O)C(F)(F)F)o1`: the TGI with A498 renal, in the assay on EKVX NSCLC, in the assay on NCI-H226 lung, in the assay with NCI-H23 lung, with SNB-75 CNS and in the assay on UACC-257 melanoma was greater than 25 µM throughout. In addition, the TGI with UACC-62 melanoma and in the assay on UO-31 renal was greater than 25 µM in each case.

`O=C(c1ccc(N=Cc2ccccc2O)cc1)c1ccc(N=Cc2ccccc2O)cc1`: the TGI in the assay with A498 renal, in the assay on EKVX NSCLC, in the assay with HOP-92 NSCLC, with NCI-H226 lung, with NCI-H23 lung and with RPMI-8226 leukemia was greater than 100 µM each time. The TGI in the assay on SNB-75 CNS, in the assay with UACC-62 melanoma and with UO-31 renal was greater than 100 µM throughout.

Take `CC(=O)OC(/C=C/c1ccccc1)=C(OC(C)C)/C1=C(\c2ccccc2)SCCCSC1=O`: the TGI in the assay with A498 renal, with EKVX NSCLC, in the assay with HOP-92 NSCLC, in the assay on NCI-H226 lung, in the assay on NCI-H23 lung and with RPMI-8226 leukemia was greater than 100 µM each time. The TGI with SNB-75 CNS, in the assay with UACC-257 melanoma, with UACC-62 melanoma and with UO-31 renal was greater than 100 µM each time.

For `OCC(O)COCn1nncc1Cn1ncc2c(SCc3ccccc3)ncnc21` (stereo not drawn), the TGI with A498 renal, in the assay with EKVX NSCLC, in the assay with MDA-N, in the assay on NCI-H23 lung, in the assay on UACC-257 melanoma and in the assay with UACC-62 melanoma was greater than 100 µM each time. In the assay with UO-31 renal, this compound showed a TGI greater than 100 µM.

For the compound `COC1=C(OC)C(=O)C(Cc2c(C)nc3sc(C)cn23)=C(C)C1=O`, the TGI in the assay with A498 renal is greater than 100 µM; in the assay with EKVX NSCLC, 35.1 µM; with MDA-N, 32.4 µM; in the assay on NCI-H23 lung, 37.2 µM; with RPMI-8226 leukemia, 39.2 µM; with UACC-257 melanoma, 26.1 µM. Also, the values for the TGI in the assay with UACC-62 melanoma and in the assay with UO-31 renal were 27.4 µM and 31.6 µM, respectively.

With `CC12C(=O)CC(CC1=O)C2(C)C`, the TGI in the assay on EKVX NSCLC, in the assay with HOP-92 NSCLC, with MDA-N, in the assay on NCI-H226 lung, in the assay on RPMI-8226 leukemia and with SNB-75 CNS was greater than 100 µM throughout. For the same compound, the TGI in the assay on UACC-257 melanoma, in the assay on UACC-62 melanoma and in the assay with UO-31 renal was greater than 100 µM in each case.

Turning to `N=C(N)c1ccc(C(NC(=O)CNS(=O)(=O)c2ccc3ccccc3c2)P(=O)(Oc2ccccc2)Oc2ccccc2)cc1` (stereo not drawn), the TGI in the assay with HOP-92 NSCLC is greater than 100 µM; in the assay with MDA-N it was greater than 100 µM; in the assay on NCI-H226 lung it was 38.8 µM; in the assay with NCI-H23 lung, greater than 100 µM; in the assay with RPMI-8226 leukemia it was greater than 100 µM; with SNB-75 CNS, greater than 100 µM. Further, the TGI in the assay with UACC-257 melanoma, in the assay on UACC-62 melanoma and in the assay with UO-31 renal was greater than 100 µM each time.

As for `c1ccc2c(c1)ccn2CCc1c[nH]c2ccccc12`, the TGI in the assay on EKVX NSCLC, in the assay with HOP-92 NSCLC, in the assay with MDA-N, in the assay with NCI-H226 lung, with NCI-H23 lung and in the assay on RPMI-8226 leukemia was greater than 10 µM throughout. The TGI with SNB-75 CNS, with UACC-257 melanoma, with UACC-62 melanoma and in the assay on UO-31 renal was greater than 10 µM in each case.

For the compound `CCOC(=O)CNc1c(OCc2ccccc2)c(=O)c1=O`, the TGI in the assay with EKVX NSCLC, with MDA-N, in the assay on NCI-H226 lung, in the assay on NCI-H23 lung, in the assay on RPMI-8226 leukemia and with SNB-75 CNS was greater than 100 µM in each case. For the same compound, the TGI in the assay on UACC-257 melanoma, in the assay on UACC-62 melanoma and in the assay with UO-31 renal was greater than 100 µM throughout.
